The values below come from publication PMC2610488 (Journal of medicinal chemistry, 2008).

The target in assay [1] is M. tuberculosis HisG (ATP-PRTase) (Mycobacterium tuberculosis, UniProt P9WMN1). The format is biochemical. The conditions noted are these: read-out: inhibition of enzyme activity.
For assay [2], the system named is M. smegmatis. In words: Whole-cell assay, growth inhibition on agar plates. It counts as cell-based. The note with it: 12 μg/ml, 4 days.
The test system of assay [3] is E. coli HisG. The conditions noted are these: E. coli enzyme; cited from earlier work.
Assay [4] deals with Arabidopsis thaliana HisG. The note with it: cited from earlier work.
Assay [5] deals with HisG. The conditions noted are these: competitive inhibitor for both substrates; cited from earlier work.

Sequence of M. tuberculosis HisG (ATP-PRTase) (P9WMN1 whole entry): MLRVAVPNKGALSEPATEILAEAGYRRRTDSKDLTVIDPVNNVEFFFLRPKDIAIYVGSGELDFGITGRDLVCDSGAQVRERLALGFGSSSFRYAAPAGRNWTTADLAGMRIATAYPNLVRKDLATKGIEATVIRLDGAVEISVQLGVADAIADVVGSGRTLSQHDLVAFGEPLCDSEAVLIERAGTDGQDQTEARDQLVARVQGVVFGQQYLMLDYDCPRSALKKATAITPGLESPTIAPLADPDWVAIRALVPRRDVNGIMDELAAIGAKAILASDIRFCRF

As usually defined, the inhibition is how much of the control response was suppressed. Turning to `O=C(CC(NC(=O)c1ccccc1)c1ccccc1)Nc1nc2ccc([N+](=O)[O-])cc2s1` (stereo not shown) [Compound 6], the inhibition at 10 µM in assay [1] is greater than 50%. The same measure, in the same setting: in the case of `O=C(CSc1nnc(-c2ccccc2)c(-c2ccccc2)n1)Cc1nccs1` [Compound 4] it was greater than 50%. In the case of `O=[N+]([O-])c1ccc(Nc2cc(Nc3cccc(O)c3)c3nonc3c2[N+](=O)[O-])c(O)c1` [Compound 18], in assay [2], the growth inhibition entry is on record as “significant growth inhibition”.

For `COc1ccc(COC(=O)C2=C(C)NC3=C(C(=O)CC(c4cccs4)C3)C2c2cccs2)cc1` (stereo not shown) [Compound 10], the inhibition at 10 µM in assay [1] was greater than 50%. As a reminder, the Ki is the equilibrium dissociation constant of an inhibitor or competing ligand from its target. Consider `O=c1oc2ccccc2c(O)c1Cc1c(O)c2ccccc2oc1=O` [dicoumarol], for which the Ki in assay [3] was 60 µM. As a reminder, the IC50 is the concentration needed to halve the response being measured. With di-(amino-naphthyl)-disulfide, the IC50 in assay [4] was 0.05 µM. Regarding `Nc1ncnc2c1ncn2[C@@H]1O[C@H](COP(=O)(O)O)[C@@H](O)[C@H]1O` [AMP, adenosine monophosphate], in assay [5], the Ki is 550 µM.
